For orientation: IC50 means the concentration needed to halve the response being measured. Low values mean greater potency, high ones weaker potency. One may read the inhibition as the percentage by which the read-out fell short of the control.

Structures can show the parent of a compound that is named as a salt. A value given as a limit tells only on which side of the number the result lay.

For one test, the target named is full-length USP7 (Homo sapiens (Human), UniProt Q93009). As to the kind of experiment: Enzymatic assay to determine IC50 of USP7 inhibitors (Ubiquitin-Rhodamine 110 cleavage). The format is biochemical. Conditions: 0.5 nM USP7, 0.5 μM Ubiquitin-Rhodamine 110, 45 min at 37° C. The method in brief: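 Enzyme: 0.5 nM full-length USP7 in HEPES pH 7.5 buffer with NaCl, DTT, BSA and Tween20, given 15 min at room temperature with DTT before compounds were added.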
Chain of full-length USP7 (Q93009 whole entry): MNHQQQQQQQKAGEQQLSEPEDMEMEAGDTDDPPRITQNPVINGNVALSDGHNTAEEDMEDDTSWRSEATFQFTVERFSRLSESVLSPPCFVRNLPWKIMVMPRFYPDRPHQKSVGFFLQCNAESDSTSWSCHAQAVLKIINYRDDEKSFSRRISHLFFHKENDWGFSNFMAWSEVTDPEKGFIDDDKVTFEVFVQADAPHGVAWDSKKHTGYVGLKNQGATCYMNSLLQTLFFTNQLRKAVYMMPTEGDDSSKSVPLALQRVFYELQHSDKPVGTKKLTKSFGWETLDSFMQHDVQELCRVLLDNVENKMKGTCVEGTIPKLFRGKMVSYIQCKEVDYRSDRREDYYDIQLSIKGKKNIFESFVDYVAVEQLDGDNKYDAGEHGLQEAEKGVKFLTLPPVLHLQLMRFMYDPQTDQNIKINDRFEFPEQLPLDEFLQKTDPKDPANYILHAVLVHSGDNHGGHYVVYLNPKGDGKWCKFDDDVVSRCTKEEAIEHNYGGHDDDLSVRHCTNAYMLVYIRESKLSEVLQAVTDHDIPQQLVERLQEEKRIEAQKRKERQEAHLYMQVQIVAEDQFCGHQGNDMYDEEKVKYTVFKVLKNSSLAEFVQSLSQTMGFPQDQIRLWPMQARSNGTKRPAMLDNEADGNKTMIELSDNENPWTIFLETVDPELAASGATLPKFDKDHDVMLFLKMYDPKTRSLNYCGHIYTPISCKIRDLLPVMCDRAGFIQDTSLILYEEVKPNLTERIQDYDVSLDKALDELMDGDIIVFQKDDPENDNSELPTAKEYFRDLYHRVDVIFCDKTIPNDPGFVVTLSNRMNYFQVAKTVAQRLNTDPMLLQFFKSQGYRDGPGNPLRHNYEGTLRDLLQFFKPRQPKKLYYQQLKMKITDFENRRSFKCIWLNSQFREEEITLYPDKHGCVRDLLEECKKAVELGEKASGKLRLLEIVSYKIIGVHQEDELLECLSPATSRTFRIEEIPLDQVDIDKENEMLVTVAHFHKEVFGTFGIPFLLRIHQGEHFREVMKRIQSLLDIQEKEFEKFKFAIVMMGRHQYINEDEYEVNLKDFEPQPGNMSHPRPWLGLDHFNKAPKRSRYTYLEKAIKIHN
Consider `Cc1cc(C(F)(F)F)nc(-c2ccnc3cc(CN4C(=O)C5C(C4=O)C5(C)C)sc23)c1C(=O)N1C[C@@H](N)[C@H](F)C1` (stereo partly drawn) [Example 117, 3-((7-(3-((3R,4R)-3-amino-4-fluoropyrrolidine-1-carbonyl)-4-methyl-6-(trifluoromethyl)pyridin-2-yl)thieno[3,2-b]pyridin-2-yl)methyl)-6,6-dimethyl-3-azabicyclo[3.1.0]hexane-2,4-dione dihydrochloride], for which the half-maximal inhibitory concentration (IC50) is less than 500 nM.

Compound `Cc1cc(C(F)(F)F)nc(-c2ccnc3cc(CN4C(=O)C5C(C4=O)C5(C)C)sc23)c1CC1CNCCN1` (racemic) [Example 35, 6,6-dimethyl-3-((7-(4-methyl-3-(piperazin-2-ylmethyl)-6-(trifluoromethyl)pyridin-2-yl)thieno[3,2-b]pyridin-2-yl)methyl)-3-azabicyclo[3.1.0]hexane-2,4-dione hydrochloride] yielded an IC50 of less than 500 nM.

Compound `Cc1nc(C(F)(F)F)cc(-c2ccnc3cc(CN4C(=O)C5C(C4=O)C5(C)C)sc23)c1O[C@H]1CCNC1` (some centres unmarked) [Example 22] showed an IC50 of 500 to 1000 nM.

`Cc1cc(C(F)(F)F)nc(-c2ccnc3cc(CN4C(=O)C5C(C4=O)C5(C)C)sc23)c1C[C@H]1CN(C)CCO1` (stereo partly drawn) [Example 97, 6,6-dimethyl-3-((7-(4-methyl-3-(((S)-4-methylmorpholin-2-yl)methyl)-6-(trifluoromethyl)pyridin-2-yl)thieno[3,2-b]pyridin-2-yl)methyl)-3-azabicyclo[3.1.0]hexane-2,4-dione dihydrochloride] displayed an IC50 of 1000 to 10000 nM.

`Cc1cc(C(F)(F)F)nc(-c2ccnc3cc(CN4C(=O)C5C(C4=O)C5(C)C)sc23)c1C[C@@H]1CNCCO1` (stereo partly drawn) [Example 96, 6,6-dimethyl-3-((7-(4-methyl-3-(((R)-morpholin-2-yl)methyl)-6-(trifluoromethyl)pyridin-2-yl)thieno[3,2-b]pyridin-2-yl)methyl)-3-azabicyclo[3.1.0]hexane-2,4-dione dihydrochloride] came in with a half-inhibitory concentration (IC50) of less than 500 nM.

For the compound `Cc1cc(C(F)(F)F)nc(-c2ccnc3cc(CN4C(=O)C5C(C4=O)C5(C)C)sc23)c1C[C@H]1CNCCO1` (stereo partly drawn) [Example 95, 6,6-dimethyl-3-((7-(4-methyl-3-(((S)-morpholin-2-yl)methyl)-6-(trifluoromethyl)pyridin-2-yl)thieno[3,2-b]pyridin-2-yl)methyl)-3-azabicyclo[3.1.0]hexane-2,4-dione dihydrochloride], the half-inhibitory concentration (IC50) is less than 500 nM.

For the compound `Cc1cc(Cl)cc(-c2ccnc3ccoc23)c1O[C@H]1CCCNC1` [Example 150, (S)-7-(5-chloro-3-methyl-2-(piperidin-3-yloxy)phenyl)furo[3,2-b]pyridine 2,2,2-trifluoroacetate], the 50% inhibitory concentration (IC50) was 1000 to 10000 nM.

Take `Cc1nc(C(F)(F)F)cc(-c2ccnc3cc(CN4C(=O)C5C(C4=O)C5(C)C)sc23)c1NC(=O)C1CC(F)(F)C1` (centres unmarked) [Example 86, N-(4-(2-((6,6-dimethyl-2,4-dioxo-3-azabicyclo[3.1.0]hexan-3-yl)methyl)thieno[3,2-b]pyridin-7-yl)-2-methyl-6-(trifluoromethyl)pyridin-3-yl)-3,3-difluorocyclobutane-1-carboxamide hydrochloride]: the IC50 is greater than 10000 nM.

Consider `Cc1cc(C(F)(F)F)nc(-c2ccnc3cc(CN4C(=O)C5C(C4=O)C5(C)C)sc23)c1C(=O)N1C[C@@H](N)[C@@H](F)C1` (stereo partly drawn) [Example 169, 3-((7-(3-((3R,4S)-3-amino-4-fluoropyrrolidine-1-carbonyl)-4-methyl-6-(trifluoromethyl)pyridin-2-yl)thieno[3,2-b]pyridin-2-yl)methyl)-6,6-dimethyl-3-azabicyclo[3.1.0]hexane-2,4-dione hydrochloride], for which the IC50 is less than 500 nM.

In the case of `Cc1cc(C#N)nc(-c2ccnc3cc(CN4C(=O)C5C(C4=O)C5(C)C)sc23)c1C(=O)NC1CNC1` (centres unmarked) [Example 56, N-(azetidin-3-yl)-6-cyano-2-(2-((6,6-dimethyl-2,4-dioxo-3-azabicyclo[3.1.0]hexan-3-yl)methyl)thieno[3,2-b]pyridin-7-yl)-4-methylnicotinamide hydrochloride], the IC50 lay in the range of 1000 to 10000 nM.

Take `Cc1cc(C(F)(F)F)nc(-c2ccnc3cc(CN4C(=O)C5C(C4=O)C5(C)C)sc23)c1NC1CCNCC1` (centres unmarked) [Example 128, 6,6-dimethyl-3-((7-(4-methyl-3-(piperidin-4-ylamino)-6-(trifluoromethyl)pyridin-2-yl)thieno[3,2-b]pyridin-2-yl)methyl)-3-azabicyclo[3.1.0]hexane-2,4-dione tetrahydrochloride]: the IC50 was less than 500 nM.

Take `CC1(C)C2C(=O)N(Cc3cc4nccc(-c5cc(C(F)(F)F)cnc5C[C@@H]5CNCCO5)c4s3)C(=O)C21` (stereo partly drawn) [Example 99, 6,6-dimethyl-3-((7-(2-(((R)-morpholin-2-yl)methyl)-5-(trifluoromethyl)pyridin-3-yl)thieno[3,2-b]pyridin-2-yl)methyl)-3-azabicyclo[3.1.0]hexane-2,4-dione 2,2,2-trifluoroacetate]: the IC50 is less than 500 nM.

Consider `Cc1nc(C#N)cc(-c2ccnc3cc(CN4C(=O)C5C(C4=O)C5(C)C)sc23)c1C(=O)N1CC[C@@H](N)C1` (stereo partly drawn) [Example 8, 5-((R)-3-aminopyrrolidine-1-carbonyl)-4-(2-((6,6-dimethyl-2,4-dioxo-3-azabicyclo[3.1.0]hexan-3-yl)methyl)thieno[3,2-b]pyridin-7-yl)-6-methylpicolinonitrile 2,2,2-trifluoroacetate], for which the IC50 fell in the range of 500 to 1000 nM.

The compound `Cc1cc(C(F)(F)F)nc(-c2ccnc3cc(CN4C(=O)C5C(C4=O)C5(C)C)sc23)c1C(=O)N1[C@H](C)CNC[C@H]1C` (stereo partly drawn) [Example 142, 3-((7-(3-((2R,6R)-2,6-dimethylpiperazine-1-carbonyl)-4-methyl-6-(trifluoromethyl)pyridin-2-yl)thieno[3,2-b]pyridin-2-yl)methyl)-6,6-dimethyl-3-azabicyclo[3.1.0]hexane-2,4-dione 2,2,2-trifluoroacetate] returned a half-maximal inhibitory concentration (IC50) of 1000 to 10000 nM.

`Cc1cc(Cl)nc(-c2ccnc3cc(CN4C(=O)C5C(C4=O)C5(C)C)sc23)c1NC1CCNCC1` (centres unmarked) [Example 127, 3-((7-(6-chloro-4-methyl-3-(piperidin-4-ylamino)pyridin-2-yl)thieno[3,2-b]pyridin-2-yl)methyl)-6,6-dimethyl-3-azabicyclo[3.1.0]hexane-2,4-dione tetrahydrochloride] yielded an IC50 of less than 500 nM.

The same test, now with this note: at 1 μM of the test compound; given where IC50 not determined yet; read-out: percent value of inhibition of USP7 activity.
For `Cc1cc(C(F)(F)F)nc(-c2ccnc3cc(CN4C(=O)C5C(C4=O)C5(C)C)sc23)c1CC1NCCNC1=O` (centres unmarked) [Example 165, 6,6-dimethyl-3-((7-(4-methyl-3-((3-oxopiperazin-2-yl)methyl)-6-(trifluoromethyl)pyridin-2-yl)thieno[3,2-b]pyridin-2-yl)methyl)-3-azabicyclo[3.1.0]hexane-2,4-dione hydrochloride], the inhibition at 1 µM lay in the range of 20 to 49%.

For the compound `CC1(C)C2C(=O)N(Cc3cc4nccc(-c5cc(F)cnc5O[C@@H]5CCNC5)c4s3)C(=O)C21` (stereo partly drawn) [Example 158, 3-((7-(5-fluoro-2-(((R)-pyrrolidin-3-yl)oxy)pyridin-3-yl)thieno[3,2-b]pyridin-2-yl)methyl)-6,6-dimethyl-3-azabicyclo[3.1.0]hexane-2,4-dione hydrochloride], the inhibition at 1 µM is less than 20%.

As for `Cc1cc(C(F)(F)F)nc(-c2ccnc3cc(CN4C(=O)C5C(C4=O)C5(C)C)sc23)c1Cn1cncn1` (centres unmarked) [Example 36, 3-((7-(3-((1H-1,2,4-triazol-1-yl)methyl)-4-methyl-6-(trifluoromethyl)pyridin-2-yl)thieno[3,2-b]pyridin-2-yl)methyl)-6,6-dimethyl-3-azabicyclo[3.1.0]hexane-2,4-dione hydrochloride], the inhibition at 1 µM is less than 20%.

Still in this test, the particulars now being: read-out: percent value of inhibition of USP7 activity.
As for `CC1(C)C2C(=O)N(Cc3cc4nccc(-c5nccn5CC5CNCCO5)c4s3)C(=O)C21` (centres unmarked) [Example 147, 6,6-dimethyl-3-((7-(1-(morpholin-2-ylmethyl)-1H-imidazol-2-yl)thieno[3,2-b]pyridin-2-yl)methyl)-3-azabicyclo[3.1.0]hexane-2,4-dione 2,2,2-trifluoroacetate], the inhibition at 1 µM was less than 20%.

For `Cc1cc(C)c(NC(=O)C2CCNCC2)c(-c2ccnc3cc(CN4C(=O)C5C(C4=O)C5(C)C)sc23)n1` (centres unmarked) [Example 134, N-(2-(2-((6,6-dimethyl-2,4-dioxo-3-azabicyclo[3.1.0]hexan-3-yl)methyl)thieno[3,2-b]pyridin-7-yl)-4,6-dimethylpyridin-3-yl)piperidine-4-carboxamide 2,2,2-trifluoroacetate], the inhibition at 1 µM is less than 20%.

As for `Cc1ccnc(-c2ccnc3cc(CN4C(=O)C5C(C4=O)C5(C)C)sc23)c1C(O)[C@@H]1CNCCO1` (stereo partly drawn) [Example 101, 3-((7-(3-(hydroxy((S)-morpholin-2-yl)methyl)-4-methylpyridin-2-yl)thieno[3,2-b]pyridin-2-yl)methyl)-6,6-dimethyl-3-azabicyclo[3.1.0]hexane-2,4-dione 2,2,2-trifluoroacetate], the inhibition at 1 µM was less than 20%.

Take `CC1(C)C2C(=O)N(Cc3cc4nccc(-c5nc(C(F)(F)F)cn5C[C@@H]5CNCCO5)c4s3)C(=O)C21` (stereo partly drawn) [Example 149, 6,6-dimethyl-3-((7-(1-(((S)-morpholin-2-yl)methyl)-4-(trifluoromethyl)-1H-imidazol-2-yl)thieno[3,2-b]pyridin-2-yl)methyl)-3-azabicyclo[3.1.0]hexane-2,4-dione 2,2,2-trifluoroacetate]: the inhibition at 1 µM is less than 20%.

As for `Cc1nc(C#N)cc(-c2ccnc3cc(CN4C(=O)C5C(C4=O)C5(C)C)sc23)c1C(=O)NC1CC(F)(F)C1` (centres unmarked) [Example 14, 6-cyano-N-(3,3-difluorocyclobutyl)-4-(2-((6,6-dimethyl-2,4-dioxo-3-azabicyclo[3.1.0]hexan-3-yl)methyl)thieno[3,2-b]pyridin-7-yl)-2-methylnicotinamide 2,2,2-trifluoroacetate], the inhibition at 1 µM is less than 20%.

Values taken from patent US12404279B2, “Deubiquitinase inhibitors and methods of use thereof” (Molecure S.A., priority 2021, dated 2025).
